# Results from article PMC11013662, “New Thiosemicarbazide Derivatives with Multidirectional Biological Action” (Molecules, 2024).
# Read-outs that look alike come from different tables or passages of the source.
# What was measured:
# [1] = test system: V79 Chinese hamster lung cells; test: MTT cytotoxicity assay; type: cell-based; conditions: Cricetulus griseus, V 79 normal cells, 72 h
# Description: Both lines were obtained from American Type Culture Collection (ATCC, Rockville, MD, USA). The culture used to grow the SW 620 cells was prepared in MEM (ThermoSci, Waltham, MA, USA). The V79 cells were cultured in RPMI (Biowest SAS, Nuaillé, France) with the addition of 20 mM HEPES (Biowest, Nuaillé, France), 10% fetal bovine serum (FBS, Sigma-Aldrich, St. Louis, MO, USA), 100 µg/mL of streptomycin, and 100 U/mL of penicillin (Gibco, Grand Island, NY, USA). The eligible level of cells confluence was 80–90%, and both cell cultures were maintained in a humidified incubator set at 37 °C with 5% CO2 until they reached it.
# The MTT assay was used to establish the cytotoxic activity of the studied compounds. The mechanism of this method relies on enzymatic conversion of 3-(4,5-dimethylthiazol-2-yl)-2,5-diphentyltetrazolium bromide salt (MTT) into insoluble formazan crystals by mitochondrial dehydrogenases within viable cells.
# The process starts with the preparation of 96-well plates by placing cells at a density of 1 × 10^4 per well and incubating them for 24 h to adhere. Afterwards, the cells were treated with different concentrations of thiosemicarbazide derivatives, from 20 to 100 µM, except the control group which remained not exposed. Next, cells were incubated for 72 h at 37 °C with a 5% CO2. Then, a solution of MTT (0.5 mg/mL) was added to each well and plates were incubated for 4 h more in the same conditions.
# To dissolve precipitated formazan crystals, a mixture of DMSO and isopropanol (in a 1:1 ratio, v/v) was used. For the spectrophotometric survey, we used MultiscanGo from Thermo Scientific with the wavelength value set at 570 nm to measure absorbance.
# Cell viability was determined as the percentage of MTT reduction in the treated cells compared to the control group (unexposed cells). The relative MTT level, represented as a percentage, was calculated using the formula [A]/[B] × 100, where [A] stands for the absorbance of the treated cell sample and [B] for the absorbance of unexposed to studied compounds sample (control group). […] To calculate IC50 values (concentration at which 50% of cell viability is inhibited), we used GraphPad Prism 8.0.1 software.
# [2] = test system: SW 620 human metastatic colon cancer cells; test: MTT cytotoxicity assay; type: cell-based; conditions: Homo sapiens; SW 620, MTT, 72 h
# Description: Both lines were obtained from American Type Culture Collection (ATCC, Rockville, MD, USA). The culture used to grow the SW 620 cells was prepared in MEM (ThermoSci, Waltham, MA, USA). The V79 cells were cultured in RPMI (Biowest SAS, Nuaillé, France) with the addition of 20 mM HEPES (Biowest, Nuaillé, France), 10% fetal bovine serum (FBS, Sigma-Aldrich, St. Louis, MO, USA), 100 µg/mL of streptomycin, and 100 U/mL of penicillin (Gibco, Grand Island, NY, USA). […] The MTT assay was used to establish the cytotoxic activity of the studied compounds. […] The process starts with the preparation of 96-well plates by placing cells at a density of 1 × 10^4 per well and incubating them for 24 h to adhere. […] Next, cells were incubated for 72 h at 37 °C with a 5% CO2. Then, a solution of MTT (0.5 mg/mL) was added to each well and plates were incubated for 4 h more in the same conditions. To dissolve precipitated formazan crystals, a mixture of DMSO and isopropanol (in a 1:1 ratio, v/v) was used. […] Cell viability was determined as the percentage of MTT reduction in the treated cells compared to the control group (unexposed cells). The relative MTT level, represented as a percentage, was calculated using the formula [A]/[B] × 100, where [A] stands for the absorbance of the treated cell sample and [B] for the absorbance of unexposed to studied compounds sample (control group).
# Rhabditis sp. = test system: Rhabditis sp.; set-up: method as in PMID 35408557; conditions: reference drug; cited from earlier work
# [3] = test system: Staphylococcus aureus ATCC 43300; test: Broth microdilution MIC / MBC; type: cell-based; conditions: ATCC 43300 / MRSA
# Description: (§1) The microdilution method was used to determine the MIC values of newly synthesized compounds. The antimicrobial activity of the thiosemicarbazides series was tested on ten reference bacterial strains purchased from the American Type Culture Collection (ATCC). Seven Gram-positive reference strains (S. aureus ATCC 29213, S. aureus ATCC 43300, S. aureus ATCC 6538, S. aureus ATCC 25923, S. epidermidis ATCC 12228, M. luteus ATCC 10240, and B. cereus ATCC 10876) and three Gram-negative reference bacteria (K. pneumoniae ATCC 13883, E. coli ATCC 25922, S. typhimurium ATCC 14028) were used. These bacterial strains are representatives of microorganisms that can cause the most common opportunistic infections among humans. The bacteria were grown on Mueller–Hinton agar (MHA) plates before examination. To perform the assay, all bacteria were placed in sterile saline (0.85% NaCl) to obtain a suspension of the optical density of the 0.5 McFarland standard (1.50 × 10^8 colony-forming units (CFUs)/mL). A solution of the tested compounds was prepared in dimethyl sulfoxide (DMSO) at a concentration of 50 mg/mL as a stock solution.
# (§2) A 96-well microtiter plate and microbroth two-fold dilution method was used to determine the minimum inhibitory concentration (MIC) according to the EUCAST (European Committee on Antimicrobial Susceptibility Testing) reference recommendation. The solutions were then diluted with Mueller–Hinton broth (MHB, Biomaxima, Lublin, Poland) medium to obtain a solution with a basic concentration of 1000 µg/mL. Then, using the two-fold dilution method with MHB, the tested compounds were introduced into the wells of the microplate to provide a final concentration in the range of 0.49 to 1000 µg/mL. Then, 2 μL of bacterial inoculum with a density of 0.5 McFarland standard was added into each well. Each well was filled with a total volume of 100 μL. Then, microtiter plates were incubated for 18 ± 2 h at 35 °C. After incubation, the growth of bacteria was monitored by a Biotek ELx800 (Biokom, Janki, Poland) spectrophotometer at 600 nm (OD600). The MIC assays were performed in triplicate.
# (§3) A negative control with MHB and without tested compounds was used. Clinically used anti-bacterial agents, cefuroxime and vancomycin, were included as positive controls for the purpose of comparison in a concentration range from 0.007 to 15.625 µg/mL.
# (§4) The in vitro antimicrobial activity of the tested compounds was determined by the MIC, which was defined as the lowest concentration of the compound tested at which no visible growth of the test bacteria was observed. The MBC (the minimum bactericidal concentration) is defined as the lowest concentration of antimicrobial agent resulting in reduction in the viability of the initial bacterial inoculum by ≥99.9% on the plate. Generally, an MBC/MIC ratio less than 4 is considered bactericidal for an antimicrobial, and an MBC/MIC > 8 is indicative of bacteriostatic activity. For the MBC test, the Mueller–Hinton agar (MHA, Biomaxima, Poland) plate assay was used. MBC was determined after the broth dilution period of an MIC test has been completed. After the MIC detection, 5 µL aliquots from each well were plated on an MHA plate and grown at 35 °C overnight. The MBC values were determined by observing the first clear area on the agar plate that has no observable bacterial growth.
# [4] = test system: Staphylococcus aureus ATCC 25923; test: Broth microdilution MIC / MBC; type: cell-based
# Description: as §1, §2, §3, §4
# [5] = test system: Micrococcus luteus ATCC 10240; test: Broth microdilution MIC / MBC; type: cell-based; conditions: ATCC10240, M. luteus ATCC 10240
# Description: as §1, §2, §3, §4
# [6] = test system: Bacillus cereus ATCC 10876; test: Broth microdilution MIC / MBC; type: cell-based; conditions: ATCC10876, B. cereus ATCC 10876
# Description: as §1, §2, §3, §4
# [7] = test system: Staphylococcus aureus ATCC 6538; test: Broth microdilution MIC / MBC; type: cell-based; conditions: ATCC6538, S. aureus ATCC 6538
# Description: as §1, §2, §3, §4
# [8] = test system: Staphylococcus epidermidis ATCC 12228; test: Broth microdilution MIC / MBC; type: cell-based; conditions: ATCC12228, S. epidermidis ATCC 12228
# Description: as §1, §2, §3, §4
smiles,measurement,setting,value
"COc1cccc2c1C(=O)c1c(O)c3c(c(O)c1C2=O)C[C@@](O)(C(=O)CO)C[C@@H]3O[C@H]1C[C@H](N)[C@H](O)[C@H](C)O1 [Ref, Doxorubicin, reference compound]",IC50,[1],0.46 ± 0.03 µM
same,IC50,[2],1.83 ± 0.1 µM
CCCSc1ccc2nc(NC(=O)OC)[nH]c2c1 [albendazole],LC50,Rhabditis sp.,19200 mg/L
"CN[C@H](CC(C)C)C(=O)N[C@H]1C(=O)N[C@@H](CC(N)=O)C(=O)N[C@H]2C(=O)N[C@H]3C(=O)N[C@H](C(=O)N[C@H](C(=O)O)c4cc(O)cc(O)c4-c4cc3ccc4O)[C@H](O)c3ccc(c(Cl)c3)Oc3cc2cc(c3O[C@@H]2O[C@H](CO)[C@@H](O)[C@H](O)[C@H]2O[C@H]2C[C@](C)(N)[C@H](O)[C@H](C)O2)Oc2ccc(cc2Cl)[C@H]1O [Van, vancomycin, reference compound]",MBC,[3],2 mg/L
same,MIC,[3],2 mg/L
same,MBC,[4]; ATCC25923,2 mg/L
same,MIC,[4]; ATCC25923,2 mg/L
"CO/N=C(\C(=O)N[C@@H]1C(=O)N2C(C(=O)O)=C(COC(N)=O)CS[C@H]12)c1ccco1 [Cef, cefuroxime, reference compound]",MIC,[5],0.25 mg/L
same,MIC,"[4]; ATCC25923, S. aureus ATCC 25923, read-out: MIC",0.49 mg/L
same,MIC,[6],31.2 mg/L
same,MIC,[7],0.98 mg/L
same,MIC,[8],0.25 mg/L
